Numbers after ± are expanded uncertainties.
Legend:
[1] = Crystal; DSC
[2] = Molar enthalpy of transition or fusion; settings: Crystal; DSC

Compound | Triple point temperature [1] [K] | Molar enthalpy of transition or fusion [2] [kcal/mol]
CCCCCCCCCCCCCCCC(=O)OCC(COC(=O)CCCCCCCCCCCCCCC)OC(=O)CCCCCCCCCCCCCCC [1,2,3-propanetriyl tri(hexadecanoate)] | 336.8 ± 1.4 | 37.9 ± 0.789
CCCCCCCCCCCCCC(=O)OCC(COC(=O)CCCCCCCCCCCCC)OC(=O)CCCCCCCCCCCCC [1,2,3-propanetriyl tri(tetradecanoate)] | 329.4 ± 1.4 | 34.5 ± 0.741
Cc1ccc(C(C)C)c(O)c1 [3-methyl-6-isopropylphenol] | 321.9 ± 1.4 | 3.11 ± 0.502
CC(C)[C@@H]1CC[C@@H](C)C[C@H]1O [L-menthol] | 314.4 ± 2.4 | 2.85 ± 0.454
CCCCCCCCCCCCCCCCCC(=O)OCC(COC(=O)CCCCCCCCCCCCCCCCC)OC(=O)CCCCCCCCCCCCCCCCC [glycerol trioctadecanoate] | 343.8 ± 1.4 | 44 ± 0.884
